Measurements taken from US12516049B2, “Sulfonylurea ring substituted monocyclic β-lactam antibiotics” (priority 2019, dated 2026).
Converted amounts (≈) assume the structure as drawn.

Tests used:
[1] = system: Enterobacter cloacae ATCC BAA-1143 (AmpC); assay: MIC, micro-liquid dilution (CLSI); assay type: cell-based; conditions: ATCCBAA1143, E. cloacae ATCC BAA-1143, Class C (AmpC), 20-24 h, 37° C.
Description: (§1) Three strains of Klebsiella pneumonia, ATCC BAA-205 (TEM-1/SHV-1/SHV-12), ATCC BAA-1705 (KPC-2), ATCC BAA-2470 (NDM-1), Enterobacter cloacae ATCC BAA-1143 (AmpC), two strains of Escherichia coli ATCC BAA-2523 (OXA-48), ATCC 25922 were used to determine the minimum inhibitory concentration (MIC) of each of the compounds by micro-liquid dilution method according to the Institute of Clinical and Laboratory Standard (CLSI) requirements. […]. The plate was placed upside down at 37° C. and the MIC value was read after 20-24 h of incubation, and the lowest drug concentration that inhibited the growth of bacteria was set as MIC. Colony-Forming Units (CFU) refer to the total number of bacterial colonies per unit volume.

[2] = system: Escherichia coli ATCC 25922; assay: MIC, micro-liquid dilution (CLSI); assay type: cell-based; conditions: ATCC25922, E. coli ATCC 25922, 20-24 h, 37° C.
Description: as §1

[3] = system: Escherichia coli ATCC BAA-2523 (OXA-48); assay: MIC, micro-liquid dilution (CLSI); assay type: cell-based; conditions: ATCCBAA2523, E. coli ATCC BAA-2523, Class D (OXA-48), 20-24 h, 37° C., read-out: MIC
Description: as §1

[4] = system: Klebsiella pneumonia ATCC BAA-1705 (KPC-2); assay: MIC, micro-liquid dilution (CLSI); assay type: cell-based; conditions: Klebsiella pneumoniae, ATCCBAA1705; K. pneumonia ATCC BAA-1705, Class A (KPC-2); 20-24 h, 37° C.
Description: as §1

[5] = system: Klebsiella pneumonia ATCC BAA-205 (TEM-1/SHV-1/SHV-12); assay: MIC, micro-liquid dilution (CLSI); assay type: cell-based; conditions: Klebsiella pneumoniae, ATCCBAA205; K. pneumonia ATCC BAA-205, Class A (TEM-1/SHV-1/SHV-12); 20-24 h, 37° C.
Description: as §1

[6] = system: Klebsiella pneumonia ATCC BAA-2470 (NDM-1); assay: MIC, micro-liquid dilution (CLSI); assay type: cell-based; conditions: Klebsiella pneumoniae, ATCCBAA2470; K. pneumonia ATCC BAA-2470, Class B (NDM-1); 20-24 h, 37° C.
Description: as §1

E. coli ATCC-25922 = assay: Mouse thigh muscle model, E. coli ATCC-25922; assay type: in vivo; conditions: immunosuppressed female CD-1 mice; E. coli ATCC-25922 1.36E+06 CFU/mouse; 100 mg/kg subcutaneously at 2, 4, 6, 8 h after infection; end point 10 h
Description: 9 female CD-1 mice were divided into 3 cages, 3 mice per cage, and were injected intraperitoneally with immunosuppressant cyclophosphamide (150 mg/kg). 24 hours later, 3 cages of mice were injected intraperitoneally again with immunosuppressant cyclophosphamide (100 mg/kg). The strain E. coli ATCC-25922 was recovered on an MHA plate. The recovered colonies were picked and dissolved in saline to prepare E. coli ATCC-25922 bacterial solution with a concentration of 1.36E+07 CFU/mL for use in mouse thigh muscle infection. The amount of bacterial solution injected into the thigh muscle of the experimental mice was 100 μL/mouse, that is, the inoculation amount was 1.36E+06 CFU/mouse. 2 h after infection, the thigh muscle tissue of the mice in control group was taken and placed in 10 mL saline, homogenized, and dotted on a plate with gradient dilution. The specific administration of mice was as follows: (1) 2 h after infection: At the end point of 2 h infection, the thigh muscle tissue of the mice in the first cage was taken and placed in 10 mL saline, homogenized, and dotted on a plate with gradient dilution, two duplications for each mouse. The amount of bacteria loaded in the thigh muscle tissue of the mouse was counted. […] The amount of bacteria loaded in the thigh muscle tissue of the mouse was counted, and the experimental results were sorted and shown in Table 4.

For `Nc1nc(/C(=N/OC2(C(=O)O)CC2)C(=O)N[C@@H]2C(=O)N(S(=O)(=O)O)[C@@H]2CN2CCNS2(=O)=O)cs1` [Compound 1], which MIC [1] is on record?
Its MIC is 1 µg/mL (≈ 1.81 µM).

What about the MIC [2] of the same compound?
The MIC was 1 µg/mL (≈ 1.81 µM).

And the MIC [3]?
Its MIC is 0.5 µg/mL (≈ 0.903 µM).

What about the MIC [4] of the same compound?
Its MIC is 0.5 µg/mL (≈ 0.903 µM).

What about the MIC [5] of the same compound?
The MIC was 0.5 µg/mL (≈ 0.903 µM).

And the MIC [6]?
Its MIC is 0.5 µg/mL (≈ 0.903 µM).

And the “Average CFU of the mouse (amount of bacteria loaded in thigh muscle tissue)” value (E. coli ATCC-25922)?
Its value is 2.25E+05 CFU.
